Several values for one entry are separate records, joined by “and”; a condition that tells them apart may be missing. Equal entries are not always repeated.
Tests used:
HEK 293 = test: MTT cell proliferation assay, HEK 293; format: cell-based, human; details: Homo sapiens, HEK293; MTT, 72 h; mean ± SD, triplicate; read-out: IC50 ± SD HEK 293
HDAC6 = biological target: T1, HDAC6 (Homo sapiens, UniProt Q9UBN7); test: HDAC enzyme activity assay (fluorogenic, Boc-Lys(acetyl)-AMC), HDAC6; format: biochemical; details: class IIb HDAC6; mean ± SD, triplicate
T1 construct: Full-length recombinant HDAC6 was purchased from BPS Bioscience; purchased BPS Bioscience
T1 sequence (Q9UBN7 1-1215): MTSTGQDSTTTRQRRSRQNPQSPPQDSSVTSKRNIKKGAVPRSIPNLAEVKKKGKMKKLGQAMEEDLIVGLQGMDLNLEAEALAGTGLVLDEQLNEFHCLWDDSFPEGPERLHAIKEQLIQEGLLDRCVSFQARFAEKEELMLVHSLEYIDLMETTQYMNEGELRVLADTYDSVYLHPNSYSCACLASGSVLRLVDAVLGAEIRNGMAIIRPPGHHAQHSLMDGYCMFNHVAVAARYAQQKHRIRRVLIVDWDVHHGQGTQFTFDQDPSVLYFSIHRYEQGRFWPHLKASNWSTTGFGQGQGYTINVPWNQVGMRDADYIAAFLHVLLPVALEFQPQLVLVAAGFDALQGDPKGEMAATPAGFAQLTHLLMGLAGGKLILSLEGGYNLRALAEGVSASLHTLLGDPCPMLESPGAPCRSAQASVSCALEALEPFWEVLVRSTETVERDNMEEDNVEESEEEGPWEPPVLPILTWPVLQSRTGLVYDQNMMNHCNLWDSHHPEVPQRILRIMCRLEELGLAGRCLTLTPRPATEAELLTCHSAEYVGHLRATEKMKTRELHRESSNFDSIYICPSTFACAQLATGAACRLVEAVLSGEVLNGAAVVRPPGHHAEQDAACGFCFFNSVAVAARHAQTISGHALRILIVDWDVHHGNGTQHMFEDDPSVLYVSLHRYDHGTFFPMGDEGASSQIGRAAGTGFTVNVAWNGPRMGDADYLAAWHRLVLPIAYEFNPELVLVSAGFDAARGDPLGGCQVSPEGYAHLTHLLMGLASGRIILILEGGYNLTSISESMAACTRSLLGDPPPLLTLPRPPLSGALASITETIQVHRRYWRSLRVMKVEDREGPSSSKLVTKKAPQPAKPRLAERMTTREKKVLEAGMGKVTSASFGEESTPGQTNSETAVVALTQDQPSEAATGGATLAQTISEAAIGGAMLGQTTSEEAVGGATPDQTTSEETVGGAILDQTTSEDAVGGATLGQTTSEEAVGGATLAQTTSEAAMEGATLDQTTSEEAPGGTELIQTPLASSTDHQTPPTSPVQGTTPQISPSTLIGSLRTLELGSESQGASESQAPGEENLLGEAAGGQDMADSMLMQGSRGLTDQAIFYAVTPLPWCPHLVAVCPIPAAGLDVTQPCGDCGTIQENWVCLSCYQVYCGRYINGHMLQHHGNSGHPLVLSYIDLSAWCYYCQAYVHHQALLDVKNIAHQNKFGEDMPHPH

HDAC8 = biological target: T2, HDAC8 (Homo sapiens, UniProt Q9BY41); test: HDAC enzyme activity assay (fluorogenic, Boc-Lys(trifluoroacetyl)-AMC), HDAC8; format: biochemical; details: class I HDAC8; mean ± SD, triplicate
T2 construct: codon-optimized full-length HDAC8; made in house; host or cells: E. coli BL21(DE3), pET14b vector
T2 sequence (Q9BY41 1-377): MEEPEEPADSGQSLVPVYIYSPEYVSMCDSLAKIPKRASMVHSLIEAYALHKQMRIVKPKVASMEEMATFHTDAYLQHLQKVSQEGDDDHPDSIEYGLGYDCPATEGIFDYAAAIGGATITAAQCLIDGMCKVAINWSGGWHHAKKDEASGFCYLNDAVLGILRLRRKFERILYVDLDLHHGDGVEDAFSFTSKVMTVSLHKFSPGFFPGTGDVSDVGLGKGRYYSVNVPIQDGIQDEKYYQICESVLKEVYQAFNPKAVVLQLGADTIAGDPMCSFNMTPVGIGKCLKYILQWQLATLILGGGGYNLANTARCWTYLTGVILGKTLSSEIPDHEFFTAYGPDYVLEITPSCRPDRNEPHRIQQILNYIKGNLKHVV

B16 = test: MTT cell proliferation assay, B16; format: cell-based, murine; details: Mus musculus, B16; MTT, 72 h; mean ± SD, triplicate; read-out: IC50 ± SD B16
HCT116 = test: MTT cell proliferation assay, HCT116; format: cell-based, human; details: Homo sapiens, HCT-116; MTT, 72 h; mean ± SD, triplicate; read-out: IC50 ± SD HCT116
MCF7 = test: MTT cell proliferation assay, MCF7; format: cell-based, human; details: Homo sapiens, MCF7, 72 h, MTT, 72 h; mean ± SD, triplicate; read-out: IC50 ± SD MCF7
HDAC4 = biological target: T3, HDAC4 (Homo sapiens, UniProt P56524); test: HDAC enzyme activity assay (fluorogenic, Boc-Lys(trifluoroacetyl)-AMC), HDAC4; format: biochemical; details: class IIa HDAC4; mean ± SD, triplicate
T3 construct: catalytic domain of HDAC4 (T648-T1057, full length: UniProt P56524); made in house; host or cells: E. coli BL21(DE3), pET14b vector
T3 sequence (P56524 648-1057): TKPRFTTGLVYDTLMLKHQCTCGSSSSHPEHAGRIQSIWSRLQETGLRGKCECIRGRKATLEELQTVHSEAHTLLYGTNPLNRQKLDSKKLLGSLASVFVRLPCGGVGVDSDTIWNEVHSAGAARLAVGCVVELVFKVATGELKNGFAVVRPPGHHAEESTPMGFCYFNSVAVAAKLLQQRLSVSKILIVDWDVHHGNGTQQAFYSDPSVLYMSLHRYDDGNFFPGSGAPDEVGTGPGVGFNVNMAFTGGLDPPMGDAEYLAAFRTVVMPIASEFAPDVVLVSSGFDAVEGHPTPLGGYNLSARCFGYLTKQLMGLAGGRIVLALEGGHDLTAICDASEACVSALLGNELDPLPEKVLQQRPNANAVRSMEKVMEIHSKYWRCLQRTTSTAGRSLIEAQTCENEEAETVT

Q: Which results are given for `O=C(NO)c1ccc(CSc2nc3ccccc3c(=O)n2-c2ccc(Cl)cc2)cc1` [Compound 5a, 4-(((3-(4-chlorophenyl)-4-oxo-3,4-dihydroquinazolin-2-yl)thio)methyl)-N-hydroxybenzamide]?
A: IC50 (HEK 293): 30.9 µM; IC50 (HDAC6): 5.6 ± 0.6 µM; IC50 (HDAC8): 24 µM; IC50 (B16): 48.8 ± 9.68 µM; IC50 (HCT116): 46.2 ± 20 µM; IC50 (MCF7): 26.5 ± 3.5 µM; IC50 (HDAC4): 4.5 ± 1.2 µM

Q: Which IC50 (HEK 293) does the source give for `O=C(NO)c1ccc(CSc2nc3ccccc3c(=O)n2-c2ccccc2)cc1` [Compound 5b, N-hydroxy-4-(((4-oxo-3-phenyl-3,4-dihydroquinazolin-2-yl)thio)methyl)benzamide] here?
A: 26.4 ± 5 µM

Q: And the IC50 (HDAC6)?
A: 0.15 ± 0.01 µM

Q: And the IC50 (HDAC8)?
A: 1.4 ± 0.3 µM

Q: What about the IC50 (B16) of the same compound?
A: 28.9 ± 2.32 µM

Q: And the IC50 (HCT116)?
A: 17.6 ± 1.77 µM

Q: And the IC50 (MCF7)?
A: 24.3 ± 5.97 µM

Q: What about the IC50 (HDAC4) of the same compound?
A: 2.3 ± 1.1 µM

Q: Which IC50 (HEK 293) does the source give for `CCc1ccc(-n2c(SCc3ccc(C(=O)NO)cc3)nc3ccccc3c2=O)cc1` [Compound 5d, 4-(((3-(4-ethylphenyl)-4-oxo-3,4-dihydroquinazolin-2-yl)thio)methyl)-N-hydroxybenzamide] here?
A: > 50 µM

Q: And the melting point?
A: 150 to 157 °C and 155 to 157 °C

Q: What about the IC50 (HDAC6) of the same compound?
A: 0.28 ± 0.06 µM

Q: What about the IC50 (HDAC8) of the same compound?
A: 2.3 ± 0.8 µM

Q: And the IC50 (B16)?
A: 29.8 ± 8.72 µM

Q: And the IC50 (HCT116)?
A: 34.5 ± 10.4 µM

Q: What about the IC50 (MCF7) of the same compound?
A: 21.7 ± 2.47 µM

Q: What about the IC50 (HDAC4) of the same compound?
A: 0.64 ± 0.37 µM

Q: For `O=C(NO)c1ccc(CSc2nc3ccccc3c(=O)n2-c2ccc(Br)cc2)cc1` [Compound 5e, 4-(((3-(4-bromophenyl)-4-oxo-3,4-dihydroquinazolin-2-yl)thio)methyl)-N-hydroxybenzamide], which IC50 (HEK 293) is on record?
A: > 50 µM

Q: And the IC50 (HDAC6)?
A: 1.1 ± 0.1 µM

Q: And the IC50 (HDAC8)?
A: 3 ± 0.5 µM

Q: And the IC50 (B16)?
A: 26.1 ± 1.27 µM

Q: What about the IC50 (HCT116) of the same compound?
A: 46.4 ± 17.8 µM

Q: And the IC50 (MCF7)?
A: 44.6 ± 1.07 µM

Q: And the IC50 (HDAC4)?
A: 1.1 ± 0.4 µM

Q: Which results are given for `Cc1ccc(-n2c(SCc3ccc(C(=O)NO)cc3)nc3ccccc3c2=O)cc1C` [Compound 5f, 4-(((3-(3,4-dimethylphenyl)-4-oxo-3,4-dihydroquinazolin-2-yl)thio)methyl)-N-hydroxybenzamide]?
A: IC50 (HEK 293): > 50 µM; melting point: 138 to 144 °C and 142 to 144 °C; IC50 (HDAC6): 0.49 ± 0.12 µM; IC50 (HDAC8): 3 ± 1 µM; IC50 (B16): > 50 µM; IC50 (HCT116): > 50 µM; IC50 (MCF7): > 50 µM; IC50 (HDAC4): 1.6 ± 0.9 µM

Q: With `Cc1cccc(-n2c(SCc3ccc(C(=O)NO)cc3)nc3ccccc3c2=O)c1` [Compound 5g, N-hydroxy-4-(((4-oxo-3-(m-tolyl)-3,4-dihydroquinazolin-2-yl)thio)methyl)benzamide] as the compound, how does the IC50 (HEK 293) read?
A: > 50 µM

Q: And the IC50 (HDAC6)?
A: 0.26 ± 0.02 µM

Q: And the IC50 (HDAC8)?
A: 0.79 ± 0.16 µM

Q: What about the IC50 (B16) of the same compound?
A: 23 ± 13.7 µM

Q: And the IC50 (HCT116)?
A: 30.7 ± 15.8 µM

Q: What about the IC50 (MCF7) of the same compound?
A: 25.3 ± 3.21 µM

Q: What about the IC50 (HDAC4) of the same compound?
A: 0.87 ± 0.31 µM

Q: With `O=C(NO)c1ccc(CSc2nc3ccccc3c(=O)n2-c2cccc(Cl)c2)cc1` [Compound 5h, 4-(((3-(3-chlorophenyl)-4-oxo-3,4-dihydroquinazolin-2-yl)thio)methyl)-N-hydroxybenzamide] as the compound, how does the IC50 (HEK 293) read?
A: > 50 µM

Q: And the IC50 (HDAC6)?
A: 0.17 ± 0.03 µM

Q: And the IC50 (HDAC8)?
A: 1.1 ± 0.3 µM

Q: And the IC50 (B16)?
A: > 50 µM

Q: What about the IC50 (HCT116) of the same compound?
A: > 50 µM

Q: What about the IC50 (MCF7) of the same compound?
A: > 50 µM

Q: What about the IC50 (HDAC4) of the same compound?
A: 1.4 ± 0.5 µM

Q: What does the source list for `O=C(NO)c1ccc(CSc2nc3ccccc3c(=O)n2-c2ccccc2F)cc1` [Compound 5i, 4-(((3-(2-fluorophenyl)-4-oxo-3,4-dihydroquinazolin-2-yl)thio)methyl)-N-hydroxybenzamide]?
A: IC50 (HEK 293): > 50 µM; IC50 (HDAC6): 0.36 ± 0.04 µM; IC50 (HDAC8): 2.9 ± 0.6 µM; IC50 (B16): > 50 µM; IC50 (HCT116): 40.4 ± 16 µM; IC50 (MCF7): > 50 µM; IC50 (HDAC4): 8.4 ± 1.2 µM

Reference: paper PMC10341573, “Design, Synthesis, and Biological Evaluation of Novel Quinazolin-4(3H)-One-Based Histone Deacetylase 6 (HDAC6) Inhibitors for Anticancer Activity” (International Journal of Molecular Sciences, 2023)
